Experiments:
[1] = tested on: BT474 and HN5 tumor cell lines; assay: Celltiter Glo growth inhibition assay (cellular Method B); format: cell-based; conditions: Homo sapiens, BT-474, 72 h; Table 2, Method B Celltiter Glo, 3 days; class over BT474 and HN5;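 further: class counts the more potent of the two cell lines (BT474 or HN5)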
Procedure: (§1) Human breast tumor cells (BT474) were cultured in RPMI, (Invitrogen, 22400) containing 10% fetal bovine serum (FBS). Human head and neck tumor cells (HN5) were cultured in low glucose DMEM (Invitrogen, 12320) containing 10% FBS. Human colon tumor cells (Colo205) were cultured in DMEM (Invitrogen, 10564) containing 10% FBS. All cell lines were maintained at 37° C. in a humidified 5% CO2, 95% air incubator. Cells were harvested using trypsin/EDTA, counted using a haemocytometer, and plated in 30 microliters of the appropriate media described above, at the following densities, in a half area, black-walled, 96-well tissue culture plate (Corning 3882): BT474 3,000 cells/well, HN5 500 cells/well and Colo205 cells, 3,000 cells/well. The next day, compounds were diluted in DMEM containing 100 mg/ml gentamicin, from 10 mM stock solutions in DMSO. 30 microliters/well of these dilutions were added to the 30 microliters/well of media currently on the cell plates. Medium containing 0.6% DMSO was added to control wells. The final concentration of DMSO in all wells was 0.3%. Cells were incubated at 37° C., 5% CO2 for 3 days. Cell biomass was estimated using Celltiter Glo (Promega G7571). Briefly, plates were removed from the incubator and allowed to equilibrate to rt for 30 minutes. 60 microliters of Celltiter Glo reagent were added to each well of the treated cells and plates were shaken on an orbital plate shaker for 2 min. Plates were incubated without shaking for 30 more min and read in a luminometer with an integration time of 0.5 seconds per well. Percent inhibition of cell growth was calculated relative to vehicle treated control wells. Concentration of compound that inhibits 50% of vehicle control cell growth (IC50) was interpolated using nonlinear regression (Levenberg-Marquardt) and the equation, y=Vmax*(1−(x/(K+x)))+Y2, where “K” was equal to the IC50.

Colo205 tumor cell lines = assay: as above; format: cell-based; conditions: Homo sapiens, COLO 205, 72 h, Table 3, Method B Celltiter Glo, 3 days
Procedure: as §1

ErbB2 or EGFR = biological target: T1, ErbB2 or EGFR; assay: ErbB enzyme substrate phosphorylation assay (HTRF), Method B (enzyme pre-incubated with compound 1 hour); format: biochemical; conditions: Table 1, enzyme Method B: enzyme mix incubated with compound 1 hour at 20° C., reaction started with substrate mix; class over ErbB2 or EGFR
T1 construct: enzymes purified from a baculovirus expression system
Procedure: Compounds of the present invention were tested for EGFR, ErbB-2, and ErbB-4 protein tyrosine kinase inhibitory activity in substrate phosphorylation assays using enzymes purified from a baculovirus expression system. Reagent production was conducted essentially as described in Brignola, P. S., et al, (2002) J. Biol. Chem. 277(2): 1576-1585.
The method measures the ability of the isolated enzyme to catalyse the transfer of the gamma-phosphate from ATP onto the tyrosine residue of a biotinylated synthetic peptide referenced “Peptide C” in Brignola, P. S., et al, (2002) J. Biol. Chem. 277(2):1576-1585. The extent of tyrosine phosphorylation was measured using an anti-phosphotyrosine antibody, and quantified by homogenous time-resolved fluorescence (HTRF).
Reactions were performed in black 384-well polystyrene flat-bottom plates in a final volume of 20 μl. Assays were performed by adding 10 μl of each of the following solutions, substrate Mix and enzyme mix: The Substrate mix contained 100 mM 3-[N-morpholino]propanesulfonic acid (MOPS) (pH 7.5), 2 mM MnCl2, 20 μM ATP, 0.01% Tween-20, 0.1 mg/mL (BSA), 0.8 uM peptide substrate, and 1 mM dithiothreitol. The enzyme mix contained 100 mM MOPS (pH7.5); 0.01% Tween-20; 0.1 mg/mL BSA, and either 0.8 nM EGFR, 10 nM ErbB2, or 1 nM ErbB4
During the course of these studies, two separate methods have been used to measure the potency of compounds. In Method A, the substrate mix was added to the compound plates first, then the reaction was started by adding the enzyme mix. In Method B, the enzyme mix was added to the compound plates and the plates were incubated at 20° C. for 1 hour. The reactions were then started by adding the substrate mix.
After initiating the reaction with either method describe above, the reactions were allowed to proceed for 90 minutes at 20° C. The reactions were then terminated by the addition of 20 μl 100 mM EDTA to each well. 40 μl/well of HTRF detection mix were added to the assay plates. The final concentrations of the detection reagents were: 100 mM HEPES (pH7.5), 0.1 mg/mL BSA, 15 nM streptavidin-labeled allophycocyanin (PerkinElmer), and 1 nM europium-labeled anti-phosphotyrosine antibody (PerkinElmer). Assay plates were left unsealed and were counted in a Wallac Multilabel Counter 1420 (PerkinElmer).
Compounds under analysis were dissolved in Me2SO to 1.0 mM and serially diluted 1 to 3 with Me2SO through twelve dilutions. 1 μl of each concentration was transferred to the corresponding well of an assay plate. This creates a final compound concentration range from 0.00027 to 47.6 μM.
The data for dose responses were plotted as % Inhibition calculated with the data reduction formula 100*(1−(U1−C2)/(C1−C2)) versus concentration of compound where U is the unknown value, C1 is the average control value obtained for 4.76% DMSO, and C2 is the average control value obtained for 0.035 M EDTA. Data were fitted with a curve described by: y=((Vmax*x)/(K+x))+Y2 where Vmax is the upper asymptote, Y2 is the Y intercept, and K is the IC50. The results for each compound were recorded as pIC50s, calculated as follows: pIC50=−Log 10(K)

Compound | IC50 [1] [nM] | IC50 (Colo205 tumor cell lines) [nM] | Activity (Method) (ErbB2 or EGFR)
CN(C)Cc1cccc(Nc2nccc(-c3c(-c4ccc(F)c(NC(=O)Cc5cccs5)c4)nn4ccccc34)n2)c1 [Example 36, N-(5-{3-[2-({3-[(dimethylamino)methyl]phenyl}amino)-4-pyrimidinyl]pyrazolo[1,5-a]pyridin-2-yl}-2-fluorophenyl)-2-(2-thienyl)acetamide] | 100 to 1000 | 100 to 1000 | ++ (B) (at least one pIC50 measurement greater than 6 against either ErbB2 or EGFR but no measurement greater than pIC50 of 7)
CN(C)C1Cc2ccc(Nc3nccc(-c4c(-c5ccc(F)c(NC(=O)Cc6cccs6)c5)nn5ccccc45)n3)cc2C1 (stereo not drawn) [Example 37, N-{5-[3-(2-{[2-(dimethylamino)-2,3-dihydro-1H-inden-5-yl]amino}-4-pyrimidinyl)pyrazolo[1,5-a]pyridin-2-yl]-2-fluorophenyl}-2-(2-thienyl)acetamide] | < 100 | 100 to 1000 | +++ (B) (at least one pIC50 measurement of greater than 7 against either ErbB2 or EGFR)
CN(C)CCOc1cccc(Nc2nccc(-c3c(-c4ccc(F)c(NC(=O)Cc5cccs5)c4)nn4ccccc34)n2)c1 [Example 38, N-[5-(3-{2-[(3-{[2-(dimethylamino)ethyl]oxy}phenyl)amino]-4-pyrimidinyl}pyrazolo[1,5-a]pyridin-2-yl)-2-fluorophenyl]-2-(2-thienyl)acetamide] | 100 to 1000 | 100 to 1000 | ++ (B) (at least one pIC50 measurement greater than 6 against either ErbB2 or EGFR but no measurement greater than pIC50 of 7)
CN(C)CCNCc1cccc(Nc2nccc(-c3c(-c4cccc(NC(=O)Cc5cccs5)c4)nn4ccccc34)n2)c1 [Example 40, N-{3-[3-(2-{[3-({[2-(dimethylamino)ethyl]amino}methyl)phenyl]-amino}-4-pyrimidinyl)pyrazolo[1,5-a]pyridin-2-yl]phenyl}-2-(2-thienyl)acetamide] | 100 to 1000 | 100 to 1000 | +++ (B) (at least one pIC50 measurement of greater than 7 against either ErbB2 or EGFR)
CS(=O)(=O)CCNCc1cccc(Nc2nccc(-c3c(-c4cccc(NC(=O)Cc5cccs5)c4)nn4ccccc34)n2)c1 [Example 41, N-{3-[3-(2-{[3-({[2-(Methylsulfonyl)ethyl]amino}methyl)phenyl]-amino}-4-pyrimidinyl)pyrazolo[1,5-a]pyridin-2-yl]phenyl}-2-(2-thienyl)acetamide] | 100 to 1000 | 100 to 1000 | +++ (B) (at least one pIC50 measurement of greater than 7 against either ErbB2 or EGFR)
NCc1cccc(Nc2nccc(-c3c(-c4cccc(NC(=O)Cc5cccs5)c4)nn4ccccc34)n2)c1 [Example 42, N-{3-[3-(2-{[3-(Aminomethyl)phenyl]amino}-4-pyrimidinyl)pyrazolo[1,5-a]pyridin-2-yl]phenyl}-2-(2-thienyl)acetamide] | 100 to 1000 | > 1000 | +++ (B) (at least one pIC50 measurement of greater than 7 against either ErbB2 or EGFR)
CN1CCC(N(C)CCOc2cc(Nc3nccc(-c4c(-c5cccc(NC(=O)Cc6cccs6)c5)nn5ccccc45)n3)ccc2Cl)C1 (stereo not drawn) [Example 46, N-{3-[3-(2-{[4-Chloro-3-({2-[methyl(1-methyl-3-pyrrolidinyl)amino]-ethyl}oxy)phenyl]amino}-4-pyrimidinyl)pyrazolo[1,5-a]pyridin-2-yl]phenyl}-2-(2-thienyl)acetamide] | > 1000 | > 1000 | +++ (B) (at least one pIC50 measurement of greater than 7 against either ErbB2 or EGFR)
COc1ccc(Nc2nccc(-c3c(-c4cccc(NC(=O)Cc5cccs5)c4)nn4ccccc34)n2)cc1N1CCN(CCS(C)(=O)=O)CC1 [Example 47, N-[3-(3-{2-[(4-(Methyloxy)-3-{4-[2-(methylsulfonyl)ethyl]-1-piperazinyl}phenyl)amino]-4-pyrimidinyl}pyrazolo[1,5-a]pyridin-2-yl)phenyl]-2-(2-thienyl)acetamide] | 100 to 1000 | < 100 | +++ (B) (at least one pIC50 measurement of greater than 7 against either ErbB2 or EGFR)
COc1ccc(-c2nn3ccccc3c2-c2ccnc(Nc3ccc4c(c3)CC(N(C)C)C4)n2)cc1NC(=O)Cc1cccs1 (stereo not drawn) [Example 48, N-{5-[3-(2-{[2-(Dimethylamino)-2,3-dihydro-1H-inden-5-yl]amino}pyrimidin-4-yl)pyrazolo[1,5-a]pyridin-2-yl]-2-methoxyphenyl}-2-(2-thienyl)acetamide] | 100 to 1000 | 100 to 1000 | + (B) (no pIC50 measurement greater than 6 against either ErbB2 or EGFR)
COc1ccc(-c2nn3ccccc3c2-c2ccnc(Nc3ccc4c(c3)CN(C)CC4)n2)cc1NC(=O)Cc1cccs1 [Example 49, N-[2-Methoxy-5-(3-{2-[(2-methyl-1,2,3,4-tetrahydroisoquinolin-7-yl)amino]pyrimidin-4-yl}pyrazolo[1,5-a]pyridin-2-yl)phenyl]-2-(2-thienyl)acetamide] | > 1000 | 100 to 1000 | + (B) (no pIC50 measurement greater than 6 against either ErbB2 or EGFR)
CN1CCc2ccc(Nc3ncc(F)c(-c4c(-c5cccc(NC(=O)c6c(F)cccc6F)c5)nn5ccccc45)n3)cc2C1 [Example 51, 2,6-Difluoro-N-[3-(3-{5-fluoro-2-[(2-methyl-1,2,3,4-tetrahydro-7-isoquinolinyl)amino]-4-pyrimidinyl}pyrazolo[1,5-a]pyridin-2-yl)phenyl]benzamide] | 100 to 1000 | 100 to 1000 | +++ (B) (at least one pIC50 measurement of greater than 7 against either ErbB2 or EGFR)
Cc1ccc(-c2nn3ccccc3c2-c2ccnc(Nc3cccc(CN4CCCC4)c3)n2)cc1NC(=O)Cc1cccs1 [Example 56, N-{2-Methyl-5-[3-(2-{[3-(1-pyrrolidinylmethyl)phenyl]amino}-4-pyrimidinyl)pyrazolo[1,5-a]pyridin-2-yl]phenyl}-2-(2-thienyl)acetamide] | > 1000 | > 1000 | ++ (B) (at least one pIC50 measurement greater than 6 against either ErbB2 or EGFR but no measurement greater than pIC50 of 7)

Source: patent US7807673B2, “2-pyrimidinyl pyrazolopyridine ErbB kinase inhibitors” (GlaxoSmithKline LLC, priority 2005, dated 2010)
